According to ChEMBL document CHEMBL6096692, “Discovery of 2(1H)-Quinoxalinone Derivatives as Potent and Selective MAT2A Inhibitors for the Treatment of MTAP-Deficient Cancers” (J Med Chem, 2025):
Converted amounts (≈) assume the structure as drawn. The source made the active and inactive calls. The rule behind the calls is not given here.

Tests used:
Cytochrome P450 2C19 = Cytochrome P450 2C19 (Homo sapiens, UniProt P33261); assay: Inhibition of CYP2C19 in human liver microsomes using S-mephenytoin as substrate incubated for 10 mins in presence of NADPH by LC-MS/MS analysis; assay type: ADME, Microsome
Sequence of Cytochrome P450 2C19 (P33261 whole entry): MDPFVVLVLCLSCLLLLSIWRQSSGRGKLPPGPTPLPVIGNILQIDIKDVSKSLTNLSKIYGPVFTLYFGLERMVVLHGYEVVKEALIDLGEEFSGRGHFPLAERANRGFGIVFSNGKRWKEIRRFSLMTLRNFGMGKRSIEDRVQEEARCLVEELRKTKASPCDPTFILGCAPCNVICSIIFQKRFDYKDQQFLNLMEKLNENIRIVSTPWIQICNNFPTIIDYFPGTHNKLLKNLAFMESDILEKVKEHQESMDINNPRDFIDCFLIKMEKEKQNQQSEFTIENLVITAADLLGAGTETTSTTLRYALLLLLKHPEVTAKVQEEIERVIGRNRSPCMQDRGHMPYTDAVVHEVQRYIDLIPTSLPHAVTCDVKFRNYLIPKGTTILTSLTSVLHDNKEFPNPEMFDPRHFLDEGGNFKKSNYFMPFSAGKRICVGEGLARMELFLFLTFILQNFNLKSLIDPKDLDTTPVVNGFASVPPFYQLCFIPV

[1] = AUC (0 to t) in male ICR mouse at 1 mg/kg, iv measured upto 36 hrs by LC-MS/MS analysis; assay type: ADME, organism-based; details: in vivo
NCI-H838 = assay: Antiproliferative activity against MTAP null human NCI-H838 cells assessed as inhibition of cell viability measured for 96 hrs by SRB assay; assay type: functional, cell-based
[2] = Plasma protein binding in mouse assessed as unbound fraction; assay type: ADME, cell-free
MKN-45 = assay: Antiproliferative activity against MTAP null human MKN-45 cells assessed as inhibition of cell viability measured for 96 hrs by SRB assay; assay type: functional, cell-based
[3] = Drug concentration in mouse plasma at 30 mg/kg, po; assay type: ADME, organism-based; details: in vivo
[4] = Cmax in male ICR mouse at 1 mg/kg, iv measured upto 36 hrs by LC-MS/MS analysis; assay type: ADME, organism-based; details: in vivo
[5] = Selectivity index, ratio of IC50 for antiproliferative activity against mouse B16-F10 cells harboring wild type MTAP assessed as inhibition of cell viability to IC50 for antiproliferative activity against MTAP knockout mouse B16-F10 cells assessed as inhibition of cell viability; assay type: functional
[6] = target: Protein arginine N-methyltransferase 5 (Homo sapiens) (UniProt O14744); assay: Inhibition of PRMT5 in MTAP-null human MIA PaCa-2 cells incubated for 24 hrs by Western blot analysis; assay type: cell-based
Sequence of Protein arginine N-methyltransferase 5 (Homo sapiens) (O14744 whole entry): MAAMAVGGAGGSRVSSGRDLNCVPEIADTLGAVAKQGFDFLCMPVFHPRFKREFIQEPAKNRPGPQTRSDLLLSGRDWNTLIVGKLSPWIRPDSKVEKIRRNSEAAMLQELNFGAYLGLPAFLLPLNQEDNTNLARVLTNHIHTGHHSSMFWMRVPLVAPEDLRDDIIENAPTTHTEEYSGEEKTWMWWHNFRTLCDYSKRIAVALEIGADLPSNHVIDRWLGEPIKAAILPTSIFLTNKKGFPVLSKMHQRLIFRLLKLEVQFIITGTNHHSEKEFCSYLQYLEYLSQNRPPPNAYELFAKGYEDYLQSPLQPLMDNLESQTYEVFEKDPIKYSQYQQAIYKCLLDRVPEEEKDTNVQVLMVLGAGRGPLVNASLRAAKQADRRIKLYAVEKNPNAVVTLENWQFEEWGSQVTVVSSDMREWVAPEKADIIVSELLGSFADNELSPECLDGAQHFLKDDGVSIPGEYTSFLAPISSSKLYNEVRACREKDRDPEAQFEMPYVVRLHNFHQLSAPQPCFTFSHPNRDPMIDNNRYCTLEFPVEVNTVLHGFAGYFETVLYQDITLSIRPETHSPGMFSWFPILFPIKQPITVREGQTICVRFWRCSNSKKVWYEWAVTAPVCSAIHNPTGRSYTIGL

MIA PaCa-2 [7] = assay: Antitumor activity against MTAP null human MIA PaCa-2 cells xenografted in mouse assessed as inhibition of SAM production in tumor at 30 to 60 mg/kg, po measured after 28 days; assay type: functional, organism-based; details: dose 30-60 mg/kg, time 28.0 day
[8] = Bioavailability in male ICR mouse at 1 mg/kg measured upto 36 hrs by LC-MS/MS analysis; assay type: ADME, organism-based; details: in vivo
Cytochrome P450 2D6 = Cytochrome P450 2D6 (Homo sapiens, UniProt P10635); assay: Inhibition of CYP2D6 in human liver microsomes using dextromethorphan as substrate incubated for 10 mins in presence of NADPH by LC-MS/MS analysis; assay type: ADME, Microsome
Sequence of Cytochrome P450 2D6 (P10635 whole entry, canonical isoform): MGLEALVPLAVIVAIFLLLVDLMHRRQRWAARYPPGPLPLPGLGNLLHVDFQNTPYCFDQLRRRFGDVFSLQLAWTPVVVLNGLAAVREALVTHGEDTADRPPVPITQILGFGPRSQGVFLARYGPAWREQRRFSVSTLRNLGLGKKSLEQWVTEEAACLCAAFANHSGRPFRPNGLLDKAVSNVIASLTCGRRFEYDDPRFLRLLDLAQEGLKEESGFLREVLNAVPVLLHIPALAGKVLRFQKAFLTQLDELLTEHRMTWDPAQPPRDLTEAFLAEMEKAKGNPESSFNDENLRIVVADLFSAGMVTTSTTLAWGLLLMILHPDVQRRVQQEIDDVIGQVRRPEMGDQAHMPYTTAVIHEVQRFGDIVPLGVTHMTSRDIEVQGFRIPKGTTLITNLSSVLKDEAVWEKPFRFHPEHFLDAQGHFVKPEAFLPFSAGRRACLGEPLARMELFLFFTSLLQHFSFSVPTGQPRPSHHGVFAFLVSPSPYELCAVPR

[9] = target: S-adenosylmethionine synthase isoform type-2 (Homo sapiens, UniProt P31153); assay: Inhibition of MAT2A in human MIA PaCa-2 cells assessed as reduction in SAM level measured for 4 hrs by immunoblotting analysis; assay type: cell-based; details: dose <= 1.0 µM
Sequence of S-adenosylmethionine synthase isoform type-2 (P31153 whole entry, looked up, canonical isoform): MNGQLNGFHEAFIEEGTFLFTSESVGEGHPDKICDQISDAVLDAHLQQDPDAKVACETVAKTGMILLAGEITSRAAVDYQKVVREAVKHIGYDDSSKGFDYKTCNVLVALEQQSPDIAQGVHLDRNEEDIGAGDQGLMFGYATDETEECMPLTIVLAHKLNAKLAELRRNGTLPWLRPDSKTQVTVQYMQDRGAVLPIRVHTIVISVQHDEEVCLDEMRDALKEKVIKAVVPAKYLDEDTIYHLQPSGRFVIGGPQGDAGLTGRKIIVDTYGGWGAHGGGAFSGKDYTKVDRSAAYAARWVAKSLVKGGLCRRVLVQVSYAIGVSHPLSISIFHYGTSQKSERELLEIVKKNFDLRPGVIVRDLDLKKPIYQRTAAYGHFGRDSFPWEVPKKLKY

[10] = Clearance in male ICR mouse at 1 mg/kg, iv measured upto 36 hrs by LC-MS/MS analysis; assay type: ADME, organism-based; details: in vivo
MCF7 = assay: Antiproliferative activity against MTAP null human MCF7 cells assessed as inhibition of cell viability measured for 96 hrs by SRB assay; assay type: functional, cell-based
B16-F10 [11] = assay: Antitumor activity against mouse B16-F10 cells harboring wild type MTAP implanted in mouse assessed as reduction in tumor volume at 30 to 60 mg/kg, po administered for 10 days and measured after 12 days; assay type: functional, organism-based; details: dose 30-60 mg/kg, time 22.0 day
[12] = target: S-adenosylmethionine synthase isoform type-2 (Mus musculus) (UniProt Q3THS6); assay: Inhibition of MAT2A in mouse B16-F10 cells assessed as reduction in SAM level measured for 4 hrs by immunoblotting analysis; assay type: cell-based; details: dose <= 1.0 µM
Sequence of S-adenosylmethionine synthase isoform type-2 (Mus musculus) (Q3THS6 whole entry, canonical isoform): as the sequence (P31153 whole entry, looked up, canonical isoform) above, with V77I, V87I counted along it

[13] = Half life in male ICR mouse at 10 mg/kg, po measured upto 36 hrs by LC-MS/MS analysis; assay type: ADME, organism-based; details: in vivo
SF-126 [14] = assay: Induction of DNA damage in MTAP knockout human SF-126 cells assessed as increase in gammaH2AX level at 0.1 to 10 uM measured for 96 hrs by immunofluorescence analysis; assay type: functional, cell-based; details: dose 0.1-10 µM
B16-F10 [15] = assay: Antitumor activity against MTAP-knockout mouse B16-F10 cells implanted in mouse assessed as reduction in tumor volume at 30 to 60 mg/kg, po administered for 10 days and measured after 12 days; assay type: functional, organism-based; details: dose 30-60 mg/kg, time 22.0 day
B16-F10 [16] = assay: Inhibition of MAT2A in MTAP knockout mouse B16-F10 cells assessed as reduction in SAM level measured for 4 hrs by immunoblotting analysis; assay type: cell-based; details: dose <= 1.0 µM
[17] = Selectivity index, ratio of IC50 for antiproliferative activity against MTAP knockout human SF-126 cells to IC50 for antiproliferative activity against human SF-126 cells harboring wild type MTAP; assay type: functional
MIA PaCa-2 [18] = assay: Antiproliferative activity against MTAP null human MIA PaCa-2 cells assessed as inhibition of cell viability measured for 96 hrs by SRB assay; assay type: functional, cell-based
B16-F10 [19] = assay: Antiproliferative activity against MTAP knockout mouse B16-F10 cells assessed as inhibition of cell viability measured for 96 hrs by SRB assay; assay type: functional, cell-based; details: B16-F10, 96 h
B16-F10 [20] = assay: Antiproliferative activity against mouse B16-F10 cells harboring wild type MTAP assessed as inhibition of cell viability measured for 96 hrs by SRB assay; assay type: functional, cell-based; details: B16-F10, 96 h
Daoy [21] = assay: Antitumor activity against human Daoy cells xenografted in mouse assessed as reduction in SDMA level in tumor at 30 mg/kg, po measured after 28 days; assay type: functional, organism-based; details: time 28.0 day
NCI-H1437 = assay: Antiproliferative activity against MTAP null human NCI-H1437 cells assessed as inhibition of cell viability measured for 96 hrs by SRB assay; assay type: functional, cell-based
B16-F10 [22] = assay: Antitumor activity against MTAP-knockout mouse B16-F10 cells implanted in mouse assessed as reduction in SAM level in plasma at 30 to 60 mg/kg, po administered for 10 days and measured after 12 hrs; assay type: functional, organism-based; details: dose 30-60 mg/kg, time 10.5 day
[23] = AUC (0 to t) in male ICR mouse at 10 mg/kg, po measured upto 36 hrs by LC-MS/MS analysis; assay type: ADME, organism-based; details: in vivo
BXPC-3 = assay: Antiproliferative activity against MTAP null human BXPC-3 cells assessed as inhibition of cell viability measured for 96 hrs by SRB assay; assay type: functional, cell-based
Daoy [24] = assay: Antitumor activity against human Daoy cells xenografted in mouse assessed as tumor growth inhibition at 30 mg/kg, po measured after 28 days; assay type: functional, organism-based; details: time 28.0 day
[25] = Kinetic solubility of compound in phosphate buffer at pH 7.4; assay type: physicochemical; details: read-out: Kinetic_solubility
MIA PaCa-2 [26] = assay: Antitumor activity against MTAP null human MIA PaCa-2 cells xenografted in mouse assessed as tumor growth inhibition at 60 mg/kg, po measured after 28 days; assay type: functional, organism-based; details: time 28.0 day
SF-126 [27] = assay: Induction of DNA damage in human SF-126 cells harboring wild type MTAP assessed as increase in gammaH2AX level at 0.1 to 10 uM measured for 96 hrs by immunofluorescence analysis; assay type: functional, cell-based; details: dose 0.1-10 µM
[28] = Plasma protein binding in human assessed as unbound fraction; assay type: ADME, cell-free
[29] = target: S-adenosylmethionine synthase isoform type-2 (Mus musculus) (UniProt Q3THS6); assay: Inhibition of MAT2A in MTAP null mouse B16-F10 cells assessed as reduction in SAM level measured for 4 hrs by immunoblotting analysis; assay type: cell-based; details: dose <= 1.0 µM

Structure (SMILES): Cn1cnc2ccc(-c3nc4ccc(C5CC5)cc4n(-c4ccc(OC(F)F)cc4)c3=O)cc21
- IC50 (Cytochrome P450 2C19): 8.7 µM
- AUC(0-t) at 36 h [1]: 3100 ng·h/mL
- Activity (NCI-H838): Active
- fraction unbound [2]: 0.016
- Activity (MKN-45): Active
- Drug uptake [3]: Active
- Cmax [4]: 985 ng/mL
- Ratio IC50 [5]: >46.5
- inhibition [6]: Active
- Activity (MIA PaCa-2 [7]): Active
- bioavailability [8]: 118%
- IC50 (Cytochrome P450 2D6): 9.2 µM
- inhibition [9]: Dose-dependent-effect
- clearance [10]: 5.17 mL/min/kg
- Activity (MCF7): Active
- Activity (B16-F10 [11]): Active
- inhibition [12]: Dose-dependent-effect
- half-life [13]: 6.73 h
- Activity (SF-126 [14]): Active
- Activity (B16-F10 [15]): Active
- inhibition (B16-F10 [16]): Dose-dependent-effect
- Ratio IC50 [17]: >57
- Activity (MIA PaCa-2 [18]): Active
- IC50 (B16-F10 [19]): 0.43 µM
- IC50 (B16-F10 [20]): > 20 µM
- Activity (Daoy [21]): Active
- Activity (NCI-H1437): Active
- Activity (B16-F10 [22]): Active
- AUC(0-t) at 36 h [23]: 36500 ng·h/mL
- Activity (BXPC-3): Active
- TGI (Daoy [24]): Active
- solubility kinetic [25]: 3.11 µM (≈ 1.43 µg/mL)
- TGI (MIA PaCa-2 [26]): Active
- Activity (SF-126 [27]): Active
- fraction unbound [28]: 0.003
- inhibition [29]: Active
